This assay relates to OVCAR-5 complex spheroid (HUVEC/MSC), viability % T/C. Description: Anticancer human tumor OVCAR-5 cell line growth inhibition [Asc].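 As to all read-outs here: spheroids exposed to agents for 7 days before readout.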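 As to viability, T/C: 100% = DMSO vehicle-treated wells.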 To be noted: for viability, T/C: stronger effect = lower value. In a few lines:
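Concentration series start at each agent's clinical Cmax, or at 10 microM when none is established, and drop in half-log steps; agents are applied alone or together to complex spheroids built with HUVEC and hMSC.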

Where [1] appears, read: curve of first compound, second compound 0.1 µM.
[2] abbreviates: curve of first compound, second compound 0.316 µM.
Where [3] appears, read: curve of first compound, second compound 1 µM.

The structures appear in SMILES notation. Values joined by “and” are separate entries in the source; they are usually repeats but may differ in a detail not shown here. Equal entries are not always repeated.

For orientation: IC50 means the point on the concentration scale where inhibition reaches its midpoint. Usually viability, T/C stands for the ratio of treated to control. With `CNC(C)C(=O)NC1CN(S(=O)(=O)c2cccc(S(=O)(=O)N3CCC4CCC(C(=O)NC(c5ccccc5)c5ccccc5)N4C(=O)C(NC(=O)C(C)NC)C3)c2)CCC2CCC(C(=O)NC(c3ccccc3)c3ccccc3)N2C1=O` (stereo unspecified) + Cc1c(S(C)(=O)=O)c(-c2cc(F)cc(N3CCN(c4ccc(NS(=O)(=O)c5ccc(NC(CCN6CCC(C(=O)OCCCP(=O)(O)O)CC6)CSc6ccccc6)c(S(=O)(=O)C(F)(F)F)c5)cc4)CC3)c2)c(-c2ccc(Cl)cc2)n1C(C)C, the IC50 is, setting by setting: under setting [1], above 1000 nM; under setting [2], above 1000 nM; under setting [3], above 1000 nM; (curve of first compound, second compound 3.16 µM) above 1000 nM; (curve of first compound, second compound 10 µM) above 1000 nM. Also, the viability, T/C is 97.7% (second compound 0.1 µM, first compound 0.00316 µM); 91.1% (second compound 0.1 µM, first compound 0.01 µM); 83.2% (second compound 0.1 µM, first compound 0.0316 µM); 79.3% (second compound 0.1 µM, first compound 0.1 µM); 85.2% (second compound 0.1 µM, first compound 0.316 µM); 76.1% (second compound 0.1 µM, first compound 1 µM). Also, the viability, T/C was 96.2% (second compound 0.316 µM, first compound 0.00316 µM); 87.7% (second compound 0.316 µM, first compound 0.01 µM); 78% (second compound 0.316 µM, first compound 0.0316 µM); 77.8% (second compound 0.316 µM, first compound 0.1 µM); 74.8% (second compound 0.316 µM, first compound 0.316 µM); 81% (second compound 0.316 µM, first compound 1 µM). Moreover, the viability, T/C reads like this: (second compound 1 µM, first compound 0.00316 µM) 90.7%; (second compound 1 µM, first compound 0.01 µM) 86.9%; (second compound 1 µM, first compound 0.0316 µM) 78.8%; (second compound 1 µM, first compound 0.1 µM) 75.2%; (second compound 1 µM, first compound 0.316 µM) 67.1%; (second compound 1 µM, first compound 1 µM) 75%. Further, the viability, T/C runs as follows: (second compound 3.16 µM, first compound 0.00316 µM) 89.1%; (second compound 3.16 µM, first compound 0.01 µM) 94.3%; (second compound 3.16 µM, first compound 0.0316 µM) 83%; (second compound 3.16 µM, first compound 0.1 µM) 68.1%; (second compound 3.16 µM, first compound 0.316 µM) 71.5%; (second compound 3.16 µM, first compound 1 µM) 81.6%. The viability, T/C was 119% (second compound 10 µM, first compound 0.00316 µM); 130% (second compound 10 µM, first compound 0.01 µM); 121% (second compound 10 µM, first compound 0.0316 µM); 99.8% (second compound 10 µM, first compound 0.1 µM); 108% (second compound 10 µM, first compound 0.316 µM); 96.8% (second compound 10 µM, first compound 1 µM).

As for `Cc1c(S(C)(=O)=O)c(-c2cc(F)cc(N3CCN(c4ccc(NS(=O)(=O)c5ccc(NC(CCN6CCC(C(=O)OCCCP(=O)(O)O)CC6)CSc6ccccc6)c(S(=O)(=O)C(F)(F)F)c5)cc4)CC3)c2)c(-c2ccc(Cl)cc2)n1C(C)C` (stereo unspecified), the viability, T/C runs as follows: (compound 0.316 µM) 92.2% [middle of 14 runs]; (compound 1 µM) 90.3% [middle of 14 runs]; (compound 3.16 µM) 88.8% [middle of 13 runs]. Moreover, the IC50 (compound alone, run of 09/27/2022) is above 10000 nM.

For `C=CC(=O)N1CCN(c2nc(=O)n(-c3c(C)ccnc3C(C)C)c3nc(-c4c(O)cccc4F)c(F)cc23)C(C)C1` (stereo unspecified), the viability, T/C (compound 0.0316 µM) is 98.8% and 111% and 105%; the viability, T/C (compound 0.1 µM) is 103% and 112% and 98%; the viability, T/C (compound 0.316 µM) is 110% and 116% and 104%; the viability, T/C (compound 1 µM) was 122% and 114% and 107%; the viability, T/C (compound 3.16 µM) is 120% and 115% and 111%; the viability, T/C (compound 10 µM) was 97% and 100% and 104%. Under “curve of compound”, the IC50 was above 10000 nM.

In the case of `Cc1nc(N2CCC3(CC2)COC(C)C3N)c(CO)nc1Sc1ccnc(N)c1Cl` (stereo unspecified) + CNC(C)C(=O)NC1CN(S(=O)(=O)c2cccc(S(=O)(=O)N3CCC4CCC(C(=O)NC(c5ccccc5)c5ccccc5)N4C(=O)C(NC(=O)C(C)NC)C3)c2)CCC2CCC(C(=O)NC(c3ccccc3)c3ccccc3)N2C1=O, the IC50 was above 3000 nM (curve of first compound, second compound 0.01 µM); above 3000 nM (curve of first compound, second compound 0.0316 µM); above 3000 nM under setting [1]; above 3000 nM under setting [2]; 2510 nM under setting [3]. The viability, T/C runs as follows: (second compound 0.01 µM, first compound 0.00949 µM) 98.5%; (second compound 0.01 µM, first compound 0.03 µM) 91%; (second compound 0.01 µM, first compound 0.0949 µM) 85%; (second compound 0.01 µM, first compound 0.3 µM) 77.7%; (second compound 0.01 µM, first compound 0.949 µM) 68.3%; (second compound 0.01 µM, first compound 3 µM) 63.8%. Further, the viability, T/C by setting is: (second compound 0.0316 µM, first compound 0.00949 µM) 84.5%; (second compound 0.0316 µM, first compound 0.03 µM) 92.3%; (second compound 0.0316 µM, first compound 0.0949 µM) 76.1%; (second compound 0.0316 µM, first compound 0.3 µM) 66.7%; (second compound 0.0316 µM, first compound 0.949 µM) 63.2%; (second compound 0.0316 µM, first compound 3 µM) 56.2%. Further, the viability, T/C is, setting by setting: (second compound 0.1 µM, first compound 0.00949 µM) 84%; (second compound 0.1 µM, first compound 0.03 µM) 82.3%; (second compound 0.1 µM, first compound 0.0949 µM) 76.7%; (second compound 0.1 µM, first compound 0.3 µM) 61.4%; (second compound 0.1 µM, first compound 0.949 µM) 58.8%; (second compound 0.1 µM, first compound 3 µM) 52.1%. Moreover, the viability, T/C by setting is: (second compound 0.316 µM, first compound 0.00949 µM) 82.7%; (second compound 0.316 µM, first compound 0.03 µM) 74.6%; (second compound 0.316 µM, first compound 0.0949 µM) 64.4%; (second compound 0.316 µM, first compound 0.3 µM) 62.1%; (second compound 0.316 µM, first compound 0.949 µM) 51.9%; (second compound 0.316 µM, first compound 3 µM) 55.2%. The viability, T/C runs as follows: (second compound 1 µM, first compound 0.00949 µM) 82.7%; (second compound 1 µM, first compound 0.03 µM) 80.8%; (second compound 1 µM, first compound 0.0949 µM) 71.7%; (second compound 1 µM, first compound 0.3 µM) 64.4%; (second compound 1 µM, first compound 0.949 µM) 60.2%; (second compound 1 µM, first compound 3 µM) 47.7%.

These data come from PubChem BioAssay AID1963436 (Molecular Pharmacology Branch, DTP, NCI, 2024).
